Tests used:
Arginase-1 = target: T1, Arginase-1 (Homo sapiens, UniProt P05089); assay: Inhibition of Arginase
T1 sequence (P05089 whole entry): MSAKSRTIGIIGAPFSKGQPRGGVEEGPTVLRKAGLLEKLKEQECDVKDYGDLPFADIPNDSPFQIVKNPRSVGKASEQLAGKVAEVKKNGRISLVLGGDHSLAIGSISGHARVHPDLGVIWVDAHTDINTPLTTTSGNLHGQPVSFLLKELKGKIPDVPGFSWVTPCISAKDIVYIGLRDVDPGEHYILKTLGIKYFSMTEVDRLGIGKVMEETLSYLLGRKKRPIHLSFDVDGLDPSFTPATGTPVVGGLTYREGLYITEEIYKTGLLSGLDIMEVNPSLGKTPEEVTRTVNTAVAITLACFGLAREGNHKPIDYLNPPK
Protocol: (§1) Inhibition of arginase I (ARG I) and arginase II (ARGG II) novel compounds is followed spectrophotometrically at 530 nm. The compound to be tested is dissolved in H2O and prepared 100 mM stock solution. 10 μl of the stock solution is diluted in 90 μl of the assay buffer that comprises 0.1M sodium phosphate buffer containing 130 mM NaCl, pH 7.4, to which is added ovalbumin (OVA) at a concentration of 1 mg/mi. Solutions of arginase I and II are prepared in 100 mM sodium phosphate buffer, pH 7.4 containing 1 mg/ml OVA to give an arginase stock solution at a final concentration of 100 ng/ml. To each well of a 96-well microtiter plate is add 40 μl of enzyme, 10 μl of an inventive compound and 10 μl of enzyme substrate (L-arginine+manganese sulfate). For wells that are used as positive controls, only the enzyme and its substrate are added, while wells used as negative controls contain only manganese sulfate. After incubating the microtiter plate at 37° C. for 60 minutes, 150 μl of a urea reagent obtained by combining equal proportions (1:1) of reagents A and B is added to each well of the microtiter plate to stop the reaction. The urea reagent is made just before use by combining Reagent A (10 mM o-phthaldialdehyde, and 0.4% polyoxyethylene (23) lauryl ether (w/v) in 1.8 M sulfuric acid) with Reagent B (1.3 mM […], 0.4% polyoxyethylene (23) lauryl ether (w/v), 130 mM boric acid in 3.6 M sulfuric acid). After quenching the reaction mixture, the microtiter plate is allowed to stand for an additional 10 minutes at room temperature to allow color development. T

[1] = target: T2, Arginase-2, mitochondrial (Homo sapiens, UniProt P78540); assay: Inhibition of Arginase
T2 sequence (P78540 whole entry): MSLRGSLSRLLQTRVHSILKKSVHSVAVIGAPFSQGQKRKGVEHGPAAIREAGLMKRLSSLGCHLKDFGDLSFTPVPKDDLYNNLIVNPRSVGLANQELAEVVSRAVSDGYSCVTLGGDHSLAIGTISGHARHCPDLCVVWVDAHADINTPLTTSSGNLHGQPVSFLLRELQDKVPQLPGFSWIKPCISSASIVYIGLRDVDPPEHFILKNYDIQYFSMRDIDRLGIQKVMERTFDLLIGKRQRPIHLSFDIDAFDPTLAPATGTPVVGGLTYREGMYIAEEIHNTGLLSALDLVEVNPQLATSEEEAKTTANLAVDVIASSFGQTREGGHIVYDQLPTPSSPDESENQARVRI
Protocol: as §1

SMILES | IC50 (Arginase-1) [nM] | IC50 [1] [nM]
CCCCNC(=O)Cn1nnnc1C(N)CCCCB(O)O (stereo not given) [US11845767, Example 271] | 14 | 
NC(CCCCB(O)O)c1nnnn1CCc1ccc(Br)cc1 (stereo not given) [US11845767, Example 313] | < 101 | 
NC(CCCCB(O)O)c1nnnn1CC(=O)N1CCOCC1 (stereo not given) [US11845767, Example 274] | 340 | 
NC(CCCCB(O)O)c1nnnn1CC(=O)NCc1ccc(Cl)cc1F (stereo not given) [US11845767, Example 318] | 15.5 | 18.6
